# Measured values as given in patent US20090068290A1, “BIFEPRUNOX DOSES FOR TREATING SCHIZOPHRENIA” (priority 2006, published 2009).
# Tested on: adult subjects with schizophrenia
# Assay: Adverse events (TEAE, SAE, discontinuation, EPS-related TEAE, anticholinergic use), Clinical Study One
# Format: in vivo, human
# Settings: for safety and tolerability: bifeprunox 5, 10, 20 mg, 6 weeks
# Procedure: METHODOLOGY: This was a randomized, double-blind, fixed-dose, placebo-controlled, risperidone-referenced, parallel group, multi-center study in adult subjects with schizophrenia. There were five treatment groups in this study. […] Study medication was administered once daily. After Baseline measurements were performed, the titration phase was begun. Bifeprunox treated subjects were titrated up to 5 mg, 10 mg or 20 mg according to a standardized titration schedule (Day 1: 0.125 mg, Day 2: 0.25 mg, Day 3: 0.5 mg, Day 4: 1.0 mg, Day 5: 2.0 mg, Day 6: 5.0 mg, Day 7: 10.0 mg, Day 8: 20 mg).
smiles,measurement,setting,value
"O=c1[nH]c2cccc(N3CCN(Cc4cccc(-c5ccccc5)c4)CC3)c2o1 [Bifeprunox, 7-[4-([1,1′-biphenyl]-3-ylmethyl)-1-piperazinyl]-2(3H)-benzoxazolone]","Anxiety, %",BX 5 mg,(5%)
same,"Confusion, %",BX 5 mg,(<1%)
same,"DIZZINESS, %",BX 5 mg,(14%)
same,"DYSKINESIA, %",BX 5 mg,(<1%)
same,"EXTRAPYRAMIDAL DISORDER, %",BX 5 mg,(1%)
same,"Gait Abnormal Nos, %",BX 5 mg,(<1%)
same,"Headache Nos, %",BX 5 mg,(30%)
same,"PSYCHIATRIC DISORDERS, %",BX 5 mg,(41%)
same,"Parkinsonian Rest Tremor, %",BX 5 mg,(<1%)
same,"SEDATION, %",BX 5 mg,(5%)
same,"SOMNOLENCE, %",BX 5 mg,(3%)
same,"Syncope, %",BX 5 mg,(<1%)
same,"TREMOR, %",BX 5 mg,(3%)
same,"Trismus, %",BX 5 mg,(<1%)
same,"Agitation Aggravated, %",BX 10 mg,(4%)
same,"Agitation, %",BX 10 mg,(9%)
same,"Anxiety Aggravated, %",BX 10 mg,(3%)
same,"Anxiety, %",BX 10 mg,(10%)
same,"DIZZINESS, %",BX 10 mg,(10%)
same,"DYSKINESIA, %",BX 10 mg,(<1%)
same,"Gait Abnormal Nos, %",BX 10 mg,(2%)
same,"Headache Nos, %",BX 10 mg,(35%)
same,"Hyperactivity Syndrome Aggravated, %",BX 10 mg,(<1%)
same,"Loss of Propriception, %",BX 10 mg,(<1%)
same,"Migraine Nos, %",BX 10 mg,(<1%)
same,"PSYCHIATRIC DISORDERS, %",BX 10 mg,(32%)
same,"SEDATION, %",BX 10 mg,(8%)
same,"SOMNOLENCE, %",BX 10 mg,(2%)
same,"Syncope, %",BX 10 mg,(3%)
same,"TARDIVE DYSKINESIA, %",BX 10 mg,(<1%)
same,"Adjustment Disorder Nos, %",BX 20 mg,(<1%)
same,"Affect Lability, %",BX 20 mg,(<1%)
same,"Aggression, %",BX 20 mg,(<1%)
same,"Agitation Aggravated, %",BX 20 mg,(<1%)
same,"Agitation, %",BX 20 mg,(11%)
same,"Anxiety Aggravated, %",BX 20 mg,(2%)
same,"Anxiety, %",BX 20 mg,(6%)
same,"Bruxism, %",BX 20 mg,(<1%)
same,"Confusion, %",BX 20 mg,(<1%)
same,"DIZZINESS, %",BX 20 mg,(7%)
same,"DYSARTHRIA, %",BX 20 mg,(<1%)
same,"Disturbance in Attention, %",BX 20 mg,(<1%)
same,"Dystonia, %",BX 20 mg,(<1%)
same,"EXTRAPYRAMIDAL DISORDER, %",BX 20 mg,(2%)
same,"Headache Nos, %",BX 20 mg,(25%)
same,"Hypoaesthesia, %",BX 20 mg,(<1%)
same,"Memory Impairment, %",BX 20 mg,(3%)
same,"Oculogyric Crisis, %",BX 20 mg,(<1%)
same,"PSYCHIATRIC DISORDERS, %",BX 20 mg,(40%)
same,"Parkinsonism, %",BX 20 mg,(<1%)
same,"SEDATION, %",BX 20 mg,(9%)
same,"SOMNOLENCE, %",BX 20 mg,(5%)
same,"Syncope, %",BX 20 mg,(2%)
same,"TARDIVE DYSKINESIA, %",BX 20 mg,(<1%)
same,"TREMOR, %",BX 20 mg,(<1%)
same,subjects with at least one AE that led to discontinuation,bifeprunox 5 mg,11%
same,subjects with at least one TEAE,bifeprunox 5 mg,89%
same,subjects with at least one AE that led to discontinuation,bifeprunox 10 mg,14%
same,subjects with at least one TEAE,bifeprunox 10 mg,87%
same,incidence of aggravated schizophrenia NOS (SAE),bifeprunox 20 mg,7%
same,subjects with at least one AE that led to discontinuation,bifeprunox 20 mg,10%
same,subjects with at least one TEAE,bifeprunox 20 mg,83%
same,subjects with at least one severe TEAE,bifeprunox 20 mg,10%
same,suicide attempt,bifeprunox 20 mg,2%
same,safety and tolerability,,safe and well tolerated at all dose levels
same,safety and tolerability,listed as bifeprunox,safe and well tolerated
same,subjects with at least one SAE,"bifeprunox groups (5, 10, 20 mg)",12-15%
same,rates of EPS,"bifeprunox, 6 weeks (Example 4)",comparable to placebo
